How the values were obtained:
Brd4 bromodomain 1 = target: T1, Brd4 bromodomain 1 (Homo sapiens, UniProt O60885); assay: Inhibition of tetra-acetylated histone H4 binding to BET bromodomain (TR-FRET); parameters: key: Active: Compounds with an IC50 value less than 30 μM were deemed to be active.; Not Active: Compounds with an IC50 value less than 30 μM were deemed to be active; conditions: Brd4 bromodomain 1, tetra-acetylated histone H4 peptide
T1 construct: made in house; host or cells: E. coli BL21(DE3)
Procedure, shortened: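 N-terminally His-tagged bromodomain (200 nM, E. coli-expressed, Ni affinity and SEC purified) with biotinylated tetra-acetylated H4 peptide (25-50 nM), Eu-cryptate streptavidin and XL665 anti-His; 2 h at room temperature in HEPES pH 7.4/KF buffer, 0.2% DMSO. The 665/620 nm ratio decrease gave IC50 from dose-response curves.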

c-myc = assay: Inhibition of c-myc expression (mRNA, real-time PCR) in MV4-11 cells; type: cell-based; parameters: key: Active: Compounds with an IC50 value less than 30 μM were deemed to be active.; Not Active: Compounds with an IC50 value less than 30 μM were deemed to be active; conditions: Human AML MV4-11 cells, 3 hours
Procedure, shortened: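 MV4-11 cells (2.5×10^4) exposed to compound or 0.1% DMSO for 3 h at 37° C, then lysed for mRNA isolation. c-myc and cyclophilin cDNAs co-amplified by duplex RT real-time PCR. IC50 from dose-response curve.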

Human AML MV-4-11 cells = assay: Inhibition of cell proliferation in MV4-11 cells; type: cell-based; parameters: key: Active: Compounds with an IC50 value less than 30 μM are deemed to be active.; Not Active: Compounds with an IC50 value less than 30 μM are deemed to be active; conditions: 72 hours
Procedure, shortened: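 Exponentially growing MV-4-11 cells were treated immediately with two-fold compound dilutions from 30 µM to 0.2 µM in triplicate for 72 h at 37 °C. Viability was read by MTS (CellTiter Aqueous One) absorbance at 490 nm after 3-4 h; % proliferation vs DMSO gave IC50.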

hIL-6 mRNA = assay: Inhibition of hIL-6 mRNA transcription in LPS-stimulated U937 macrophages; type: cell-based, human; parameters: key: Active: Compounds with an IC50 value less than 30 μM are deemed to be active.; Not Active: Compounds with an IC50 value less than 30 μM are deemed to be active; conditions: U937 cells differentiated with PMA, 1 h pretreatment, LPS 3 h
Procedure, shortened: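 U937 cells differentiated to macrophages with 60 ng/mL PMA for 3 days, pretreated 1 h with compound, then stimulated with 1 ug/mL E. coli LPS for 3 h at 37° C. IL-6 mRNA measured by one-step qRT-PCR, Ct normalized to internal control, expressed as fold induction relative to control.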

hApoA-1 mRNA = assay: Up-regulation of hApoA-1 mRNA transcription in Huh7 cells; type: cell-based, human; parameters: key: Active: Compounds with an EC170 value less than 30 μM are deemed to be active.; Not Active: Compounds with an EC170 value less than 30 μM are deemed to be active; conditions: 48 hrs treatment, ApoA-I mRNA
Procedure, shortened: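 Huh7 cells plated 24 h before compound, then treated 48 h; mRNA isolated from lysates and ApoA-I quantified by one-step real-time PCR. Fold induction derived from Ct values relative to the matching DMSO control; EC170 reported as activity measure.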

| Structure (SMILES) | FRET activity (IC50 < 30 μM) (Brd4 bromodomain 1) | c-myc activity (IC50 < 30 μM) (c-myc) | cell proliferation activity (IC50 < 30 μM) (Human AML MV-4-11 cells) | IL-6 activity (IC50 < 30 μM) (hIL-6 mRNA) | ApoA-1 activity (EC170 < 30 μM) (hApoA-1 mRNA) | melting point |
| --- | --- | --- | --- | --- | --- | --- |
| COc1cc(OC)c2c(=O)[nH]c(-c3cccc(N4CCN(C(C)C)CC4)c3)nc2c1 [Example 1, 2-(3-(4-Isopropylpiperazin-1-yl)phenyl)-5,7-dimethoxyquinazolin-4(3H)-one] | Active | Active | Not Active | Active | Active | 251 to 253 °C |
| COc1cc(OC)c2c(=O)[nH]c(-c3cccc(N4CCN(CC(C)C)CC4)n3)nc2c1 [Example 5, 2-(6-(4-Isobutylpiperazin-1-yl)pyridin-2-yl)-5,7-dimethoxyquinazolin-4(3H)-one] | Active | Active | Active | Active | Active | 188 to 189 °C |
| COc1cc(OC)c2c(=O)[nH]c(-c3cccc(N4CCN(C(C)CO)CC4)n3)nc2c1 (stereo not drawn) [Example 8, 2-(6-(4-(1-Hydroxypropan-2-yl)piperazin-1-yl)pyridin-2-yl)-5,7-dimethoxyquinazolin-4(3H)-one] | Active | Active | Active | Active | Active | 202 to 204 °C |
